Laboratory results from US20210196720A1 (UROVANT SCIENCES GMBH, priority 2018, published 2021).
“And” between values parts separate entries of the source, which are not always exact repeats. Identical values can stand only once. Like-named read-outs stand apart in the source and are kept apart here.

What was measured:
[1] = Single rising oral dose Phase 1 PK, healthy adults (young males unless stated); format: in vivo, human; conditions: for Cmax / AUC(0-t) / half-life / AUC(0-inf): male, human, plasma, oral; for AUC(0-t): read-out: AUC0-24
Method: The steady state AUC geometric mean accumulation ratios were ˜2 in young male subjects and ˜2.8 in elderly subjects (male and female).
All subjects were healthy adults. […] Systemic exposures were greater than dose proportional up to 600 mg.
Although exposures were similar in middle-aged males when compared to young males, plasma concentrations were higher in elderly compared to middle-aged and young subjects. […] Furthermore, the steady state AUC geometric mean accumulation ratios were ˜2 in young males and ˜2.8 in the elderly.

[2] = Dose-Cmax and dose-AUC models / simulations for 75 mg; design: species or system human
Method: In order to contextualize PK parameters of a 75 mg dose, dose-Cmax and dose-AUC models were created using data from Phase 1 studies.

[3] = Capsule vs tablet single-dose crossover PK, 150 mg, healthy males; format: in vivo; conditions: male, human, plasma, oral
From the text: Tmax and the apparent terminal t1/2 were also similar between the two formulations.

[4] = clinical; conditions: human, 100 mg
From the text: The relationship between clearance and renal function was modeled using linear regression.

[5] = target: β2-AR (Homo sapiens, UniProt P07550); experiment: Competition binding assay, recombinant β2-AR
Sequence of β2-AR (P07550 whole entry): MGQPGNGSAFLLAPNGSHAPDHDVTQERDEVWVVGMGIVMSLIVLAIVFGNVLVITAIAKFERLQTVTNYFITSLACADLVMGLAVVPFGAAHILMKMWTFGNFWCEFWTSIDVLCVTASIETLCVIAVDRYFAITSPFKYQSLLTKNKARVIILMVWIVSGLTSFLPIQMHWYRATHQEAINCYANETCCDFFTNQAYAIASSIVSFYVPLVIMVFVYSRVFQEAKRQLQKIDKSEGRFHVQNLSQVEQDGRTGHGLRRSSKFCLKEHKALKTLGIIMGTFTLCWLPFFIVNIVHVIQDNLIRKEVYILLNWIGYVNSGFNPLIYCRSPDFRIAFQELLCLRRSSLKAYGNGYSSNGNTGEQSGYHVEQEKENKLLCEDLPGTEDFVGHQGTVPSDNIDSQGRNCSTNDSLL

[6] = 100 mg, single 100 mg, Japanese
[7] = 200 mg, single 200 mg, Japanese
[8] = 300 mg, single 300 mg, Japanese
[9] = 75 mg, log-log regression of multiple-dose exposures

**Q.** What does the source list for `O=C(Nc1ccc(C[C@@H]2CC[C@H]([C@H](O)c3ccccc3)N2)cc1)[C@@H]1CCc2nccc(=O)n21` [Vibegron, (6S)-N-[4-[[(2S,5R)-5-[(R)-hydroxy(phenyl)methyl]pyrrolidin-2-yl]methyl]phenyl]-4-oxo-7,8-dihydro-6H-pyrrolo[1,2-a]pyrimidine-6-carboxamide]?
**A.** Cmax ([1]; 50 mg, single 50 mg, fasted): 31.7 ± 35 ng/mL; AUC(0-t) ([1]; 50 mg, single 50 mg, fasted): 219 ± 123 ng·h/mL; half-life ([1]; 50 mg, single 50 mg, read-out: t1/2 (converted)): 52 h; AUC(0-inf) ([1]; 100 mg, single 100 mg): 1890 ± 698 ng·h/mL; Cmax ([1]; 100 mg, single 100 mg): 142 ± 108 ng/mL; AUC(0-inf) [1, 6]: 1770 ± 418 ng·h/mL; Cmax [1, 6]: 190 ± 123 ng/mL; AUC(0-t) [1, 6]: 920 ± 300 ng·h/mL; half-life ([1]; 100 mg, single 100 mg, Japanese, read-out: t1/2 (converted)): 57.6 ± 12 h; AUC(0-t) ([1]; 100 mg, single 100 mg): 845 ± 401 ng·h/mL; half-life ([1]; 100 mg, single 100 mg, read-out: t1/2 (converted)): 72.8 ± 10.8 h; AUC(0-inf) ([1]; 150 mg, single 150 mg): 2270 ± 911 ng·h/mL; Cmax ([1]; 150 mg, single 150 mg): 195 ± 185 ng/mL; AUC(0-t) ([1]; 150 mg, single 150 mg): 1050 ± 551 ng·h/mL; half-life ([1]; 150 mg, single 150 mg, read-out: t1/2 (converted)): 60.5 ± 10.5 h; AUC(0-inf) ([1]; 200 mg, single 200 mg): 3630 ± 1110 ng·h/mL; Cmax ([1]; 200 mg, single 200 mg): 274 ± 138 ng/mL; AUC(0-inf) [1, 7]: 5200 ± 791 ng·h/mL; Cmax [1, 7]: 516 ± 200 ng/mL; AUC(0-t) [1, 7]: 3090 ± 569 ng·h/mL; half-life ([1]; 200 mg, single 200 mg, Japanese, read-out: t1/2 (converted)): 58.4 ± 9 h; AUC(0-t) ([1]; 200 mg, single 200 mg): 1740 ± 748 ng·h/mL; half-life ([1]; 200 mg, single 200 mg, read-out: t1/2 (converted)): 75.3 ± 9.1 h; AUC(0-inf) ([1]; 300 mg, single 300 mg): 7380 ± 1410 ng·h/mL; Cmax ([1]; 300 mg, single 300 mg): 618 ± 231 ng/mL; AUC(0-inf) [1, 8]: 6270 ± 1570 ng·h/mL; Cmax [1, 8]: 733 ± 210 ng/mL; AUC(0-t) [1, 8]: 4050 ± 1240 ng·h/mL; half-life ([1]; 300 mg, single 300 mg, Japanese, read-out: t1/2 (converted)): 59.7 ± 9.2 h; AUC(0-t) ([1]; 300 mg, single 300 mg): 4430 ± 996 ng·h/mL; half-life ([1]; 300 mg, single 300 mg, read-out: t1/2 (converted)): 63.4 ± 3 h; AUC(0-inf) ([1]; 450 mg, single 450 mg): 9160 ± 1850 ng·h/mL; Cmax ([1]; 450 mg, single 450 mg): 645 ± 165 ng/mL; AUC(0-t) ([1]; 450 mg, single 450 mg): 5510 ± 1440 ng·h/mL; half-life ([1]; 450 mg, single 450 mg, read-out: t1/2 (converted)): 60 ± 9.4 h; AUC(0-inf) ([1]; 600 mg, single 600 mg): 15500 ± 3450 ng·h/mL; Cmax ([1]; 600 mg, single 600 mg): 1330 ± 529 ng/mL; AUC(0-t) ([1]; 600 mg, single 600 mg): 10900 ± 2770 ng·h/mL; half-life ([1]; 600 mg, single 600 mg, read-out: t1/2 (converted)): 60.5 ± 5.2 h; half-life ([1]; 10 to 600 mg, healthy young males, read-out: terminal elimination t1/2): 43 to 75 h; half-life ([1]; Japanese subjects, read-out: harmonic mean apparent terminal t1/2): 58 to 71 h; AUC0-inf higher in elderly than young males ([1]; single 50 mg): ~70%; Cmax higher in elderly than young males ([1]; single 50 mg): 60%; t1/2 ([1]; single 50 mg): 52 h and 52.0 ± 7.8 h; t1/2 ([1]; single 50 mg, elderly male and female): 92 h and 92.1 ± 15.9 h; exposure increase, Japanese vs non-Japanese young males ([1]; single dose): < 2 fold; AUC of 75 mg lower than 200 mg single dose [2]: ~2 fold; AUC of 75 mg lower than 400 mg single dose [2]: ~6 fold; Cmax of 75 mg lower than 200 mg single dose [2]: approximately 3.3 fold; Cmax of 75 mg lower than 400 mg single dose [2]: ~9.2 fold; reduction in Cmax ([2]; 75 mg vs 100 mg): ~40%; calculated AUC (mean±SD) [2, 9]: 1140 ± 476 ng·h/mL; calculated Cmax (mean±SD) [2, 9]: 120 ± 74.7 ng/mL and 120 ng/mL; Cmax ([2]; 100 mg): 206 ng/mL; increase in Cmax ([2]; dose increase from 50 to 100 mg): ~3 fold; AUC(0-inf) ([3]; 1 × 150 mg capsule): 2840 ng·h/mL; Cmax ([3]; 1 × 150 mg capsule): 237 ng/mL; AUC(0-inf) ([3]; 3 × 50 mg tablets): 2660 ng·h/mL; Cmax ([3]; 3 × 50 mg tablets): 213 ng/mL; Cmax ([4]; in vivo): 107 ng/mL; Cmax ([4]; plasma, oral): 152 ng/mL; half-life ([4]; plasma, oral): 131 h; binding to β2-AR [5]: does not bind
